Among the data in a melting point compilation (Tetko et al.; mined from patent text by program, amines drawn as free bases though some values may be those of a salt) are melting point values, retold here.

Each structure is given as a SMILES string.

For `Cc1cc2c(-c3ccccc3)c(NC(=O)N(C)Cc3ccccc3)n(C)c(=O)c2cc1C`, the melting point (as a rule, the temperature of the solid-liquid transition) lay within 174 to 176 °C.

In the case of `O=P(c1ccccc1)(c1ccccc1)c1ccc(F)cc1F`, the melting point lay within 111 to 112 °C.

Regarding `CCn1cnc(S(=O)(=O)O)c1`, the melting point came out at 278 °C.

Consider `CC(O)(C#Cc1ccccc1)C(=O)O` (stereo not drawn), for which the melting point was 104 to 106 °C.

Compound `COc1ccc2cc(CNC(=O)c3oc4ccccc4c3C)ccc2c1Br` registered a melting point of 154 to 156 °C.

Compound `CCOC(=O)c1ncc2[nH]c3c([N+](=O)[O-])cccc3c2n1` gave a melting point of 318 to 325 °C.

For `Cc1ccc(S(=O)(=O)NCCN(C(=O)c2ccccc2C(=O)c2ccccc2)C(C)C)cc1`, the melting point lay within 135 to 137 °C.

For the compound `O=C(c1ccccc1)[C@@]1([N+](=O)[O-])[C@@H]2C=C[C@@H](C2)[C@H]1c1ccccc1` (relative stereo), the melting point was 119 to 120 °C.

On to `Cc1nc2c(N)nc3c(c2n1CCCCS(=O)(=O)C(C)C)CCCC3`, for which the melting point was in the range of 177 to 178 °C.

As for `CC(=O)N(c1nc2nc(C)cc(C)n2n1)S(=O)(=O)c1c(Cl)cccc1Cl`, the melting point was 219 to 222 °C.

As for `Cc1cc(C)cc(Oc2c(C(C)C)c(=O)[nH]c(=O)n2CCC2C=CCC2)c1` (stereo not drawn), the melting point was 148 to 149 °C.

`O=C(O)COc1cc(Cl)ccc1C(=O)NCc1cccc([N+](=O)[O-])c1` returned a melting point of 200 °C.

Consider `COCCNC(=O)c1ccc(C(=O)NS(=O)(=O)c2ccccc2)cn1`, for which the melting point was 190 to 191 °C.

Compound `COc1ccc(OC)c2c1C(=O)C=C(SCCCCCCCCCCC(=O)NCC(C)C)C2=O` came in with a melting point of 74 to 75 °C.

In the case of `COc1ccc(C=N[C@H]2C(OC(C)=O)O[C@H](COC(C)=O)[C@@H](OC(C)=O)[C@@H]2OC(C)=O)cc1` (stereo partly drawn), the melting point was in the range of 180 to 181 °C.

In turn, `COC(=O)Oc1ccc(N=C(C#N)c2ccccc2)cc1` registered a melting point of 145 to 146 °C.

`COc1nc(OC)c(I)c(C(=O)O)n1` came in with a melting point of 125 to 126 °C.

Regarding `CC(C)Cc1ccc2c(c1)C(=O)N(c1ccc3c(ccn3C)c1)C2`, the melting point fell in the range of 193 to 194 °C.

Consider `COc1cc2ncnc(N3CCN(C(=S)NCc4ccc(N(C)C)cc4)CC3)c2cc1OC`, for which the melting point was 177 to 178 °C.

Compound `CCCCN(CCCC)CCCCCCOc1ccc([C@H]2c3ccc(OCc4ccccc4)cc3OC[C@H]2c2ccccc2)cc1` (racemic) yielded a melting point of 72 to 73.5 °C.

`CC(C)CCNC1(c2ccccc2Cl)C(=O)Nc2ccc(Cl)cc21` (stereo not drawn) had a melting point of 152 °C.

The compound `CCOC(=O)NNc1ccc(-c2ccc(F)cc2)nn1` came in with a melting point of 173 to 174 °C.

`O=C(NCC(F)(F)F)c1ccc(C(F)(F)F)cc1`: the melting point was 117 °C.

With `Oc1ccc(-c2nc(-c3ccc(O)cc3O)nc(-c3cccn3Cc3ccccc3)n2)c(O)c1`, the melting point is above 275 °C.

`CCOC(=O)Cn1c(=O)n(Cc2ccc(Cl)c(Cl)c2)c(=O)c2c(C)c(Cl)sc21` came in with a melting point of 141 to 145 °C.

Take `COc1ccc(CNc2ncc(Cl)cc2C(=O)O)cc1`: the melting point lay in the range of 204 to 206 °C.

For `CCOC(=O)[C@H](CCC1CCCCC1)N[C@@H]1COc2ccccc2N(Cc2ccc(C(C)C)cc2)C1=O`, the melting point was 80 °C.

For `CC(=O)NCc1cc([N+](=O)[O-])ccc1N`, the melting point lay in the range of 208 to 210 °C.

The compound `Clc1ccc(-c2nc(-c3ccccc3)sc2CBr)cc1` yielded a melting point of 108 to 109 °C.

Consider `CCCCCCC(C)(C)c1cc(OCc2ccccc2)c(C2=C(C(C)(C)C(N)=O)CCC(C)C2)c(OCc2ccccc2)c1` (stereo not drawn), for which the melting point was in the range of 113 to 114 °C.

In turn, `O=C1CC[N+]([O-])=C(c2ccccc2F)c2cc(Cl)ccc21` displayed a melting point of 166 to 168 °C.

Turning to `CC(C)n1nc(-c2c(-c3ccccc3)nn3ccc(Oc4ccccn4)cc23)ccc1=O`, the melting point is 140 to 142 °C.

Consider `COc1cc(Nc2c(C#N)cnc3cc(OCCCN4CCS(=O)(=O)CC4)c(OC)cc23)c(Cl)cc1Cl`, for which the melting point was in the range of 118 to 120 °C.
